Biological target: PIK3CD (Human) (UniProt O00329)
Assay: Assessment of PIK3CD Kinase Activity (Scintillation Proximity Assay)

Sequence of PIK3CD (Human) (O00329 whole entry, looked up): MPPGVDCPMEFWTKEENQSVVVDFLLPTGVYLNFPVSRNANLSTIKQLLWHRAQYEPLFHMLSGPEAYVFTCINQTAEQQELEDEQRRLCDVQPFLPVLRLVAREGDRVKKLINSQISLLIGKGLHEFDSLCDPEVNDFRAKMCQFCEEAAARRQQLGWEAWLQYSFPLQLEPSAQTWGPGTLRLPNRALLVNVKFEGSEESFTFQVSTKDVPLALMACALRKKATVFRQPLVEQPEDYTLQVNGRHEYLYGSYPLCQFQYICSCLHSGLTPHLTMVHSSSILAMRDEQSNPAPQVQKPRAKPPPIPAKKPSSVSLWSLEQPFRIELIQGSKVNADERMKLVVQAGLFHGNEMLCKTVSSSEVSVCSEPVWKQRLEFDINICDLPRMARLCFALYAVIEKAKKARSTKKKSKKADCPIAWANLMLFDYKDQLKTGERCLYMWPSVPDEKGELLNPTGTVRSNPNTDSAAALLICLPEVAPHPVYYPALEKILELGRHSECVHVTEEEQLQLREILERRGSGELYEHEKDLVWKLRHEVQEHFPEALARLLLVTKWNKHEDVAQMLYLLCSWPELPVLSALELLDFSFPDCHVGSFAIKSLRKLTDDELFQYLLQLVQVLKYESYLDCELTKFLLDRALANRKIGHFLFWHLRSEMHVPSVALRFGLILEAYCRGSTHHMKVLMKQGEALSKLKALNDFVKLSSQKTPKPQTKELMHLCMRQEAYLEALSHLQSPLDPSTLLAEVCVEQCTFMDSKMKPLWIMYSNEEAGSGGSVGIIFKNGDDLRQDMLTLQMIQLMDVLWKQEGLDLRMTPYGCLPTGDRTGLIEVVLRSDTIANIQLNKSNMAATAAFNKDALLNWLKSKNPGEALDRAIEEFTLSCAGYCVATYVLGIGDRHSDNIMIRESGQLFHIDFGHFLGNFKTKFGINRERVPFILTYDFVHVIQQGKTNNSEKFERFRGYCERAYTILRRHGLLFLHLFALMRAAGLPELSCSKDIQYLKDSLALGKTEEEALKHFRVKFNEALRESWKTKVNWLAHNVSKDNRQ

**Q.** `CCOc1c(C(C)n2nc(-c3ccc(F)cc3)c3c(N)ncnc32)cc(Cl)c(C)c1-c1ccc(C(=O)N(C)C)nc1` (centres undefined) was tested. Which IC50 did it give?
**A.** 10 to 50 nM

**Q.** Which IC50 does the source give for `CCOc1c(C(C)n2ccc(=O)c3c(N)ncnc32)cc(Cl)c(C)c1C1CN(C(C)C)C1` (centres undefined) here?
**A.** ≤ 10 nM

**Q.** How did the IC50 turn out when `COc1c(C(C)n2nc(C)c3c(N)ncnc32)cc(Cl)c(Cl)c1C1CN(C[C@H](C)O)C1` (some centres undefined) was run?
**A.** ≤ 10 nM

**Q.** With `COc1c(C(C)n2nc(C)c3c(N)ncnc32)cc(Cl)c(C#N)c1C1CNC1` (centres undefined) as the compound, how does the IC50 read?
**A.** ≤ 10 nM

**Q.** Which IC50 does the source give for `COc1c(C(C)n2nc(-c3cnn(C)c3)c3c(N)ncnc32)cc(Cl)c(C)c1C1CN(CC#N)C1` (centres undefined) here?
**A.** ≤ 10 nM

**Q.** For `COc1c(C(C)n2nc(C(F)F)c3c(N)ncnc32)cc(Cl)c(F)c1C1CN(C(C)C)C1` (centres undefined), which IC50 is on record?
**A.** ≤ 10 nM

**Q.** With `CCOc1c(C(C)n2nc(C)c3c(N)ncnc32)cc(Cl)c(C#N)c1C1CN(C(=O)C(C)C)C1` (centres undefined) as the compound, how does the IC50 read?
**A.** ≤ 10 nM

**Q.** `CCOc1c(C(C)n2nc(C)c3c(N)ncnc32)cc(Cl)c(C#N)c1C1CN(C(=O)OC)C1` (centres undefined) was tested. Which IC50 did it give?
**A.** ≤ 10 nM

**Q.** Which IC50 does the source give for `CCOc1c(C(C)n2nc(C)c3c(N)ncnc32)cc(Cl)c(C#N)c1-c1cncnc1` (centres undefined) here?
**A.** ≤ 10 nM

**Q.** How did the IC50 turn out when `CCOc1c(C(C)n2nc(C)c3c(N)ncnc32)cc(Cl)c(C#N)c1C1CN(C(=O)CC)C1` (centres undefined) was run?
**A.** ≤ 10 nM

**Q.** With `CCOc1c(C(C)n2nc(C)c3c(N)ncnc32)cc(Cl)c(C#N)c1C1CCOC1` (centres undefined) as the compound, how does the IC50 read?
**A.** ≤ 10 nM

**Q.** For `COc1c(C(C)n2cc(C)c(=O)c3c(N)ncnc32)cc(Cl)c(C)c1-c1ccc(C(=O)N(C)C)nc1` (centres undefined), which IC50 is on record?
**A.** ≤ 10 nM

**Q.** `COc1c(C(C)n2nc(-c3cn[nH]c3)c3c(N)ncnc32)cc(Cl)c(C)c1C1CN(CC#N)C1` (centres undefined) was tested. Which IC50 did it give?
**A.** ≤ 10 nM

**Q.** Which IC50 does the source give for `Cc1c(Cl)cc(C(C)n2nc(C)c3c(N)ncnc32)c(OCC2CC2)c1-c1ccc(C(=O)N(C)C)nc1` (centres undefined) here?
**A.** ≤ 10 nM

**Q.** How did the IC50 turn out when `COc1c(C(C)n2ccc(=O)c3c(N)ncnc32)cc(Cl)c(C)c1-c1ccc(C(=O)N(C)C)nc1` (centres undefined) was run?
**A.** ≤ 10 nM

**Q.** How did the IC50 turn out when `CCOc1c(C(C)n2nc(C)c3c(N)ncnc32)cc(Cl)c(F)c1C1CN(CCO)C1` (centres undefined) was run?
**A.** ≤ 10 nM

**Q.** For `CCOc1c(C(C)n2nc(CN(C)C)c3c(N)ncnc32)cc(Cl)c(C)c1-c1ccc(C(=O)N(C)C)nc1` (centres undefined), which IC50 is on record?
**A.** 50 to 200 nM

**Q.** With `CCNC(=O)N1CC(c2c(C#N)c(Cl)cc(C(C)n3nc(C)c4c(N)ncnc43)c2OCC)C1` (centres undefined) as the compound, how does the IC50 read?
**A.** ≤ 10 nM

**Q.** Which IC50 does the source give for `CCOc1c(C(C)n2nc(C)c3c(N)ncnc32)cc(Cl)c(F)c1C1CN(C[C@@H](C)O)C1` (some centres undefined) here?
**A.** ≤ 10 nM

**Q.** Which IC50 does the source give for `CCC(=O)N1CC(c2c(C)c(Cl)cc(C(C)n3nc(C)c4c(N)ncnc43)c2OC)C1` (centres undefined) here?
**A.** ≤ 10 nM

**Q.** How did the IC50 turn out when `CCOc1c(C(C)n2nc(C)c3c(N)ncnc32)cc(Cl)c(F)c1C1CN(C(C)C)C1` (centres undefined) was run?
**A.** ≤ 10 nM

**Q.** `CCOc1c(C(C)n2nc(C)c3c(N)ncnc32)cc(C)c(C#N)c1C1CN(C(=O)C(C)(C)O)C1` (centres undefined) was tested. Which IC50 did it give?
**A.** ≤ 10 nM

**Q.** `COc1c(C(C)n2nc(C)c3c(N)ncnc32)cc(Cl)c(C#N)c1-c1cncc(S(C)(=O)=O)c1` (centres undefined) was tested. Which IC50 did it give?
**A.** ≤ 10 nM

**Q.** Which IC50 does the source give for `CCOc1c(C(C)n2nc(C)c3c(N)ncnc32)cc(Cl)c(C#N)c1C1CN(C(=O)NC(C)(C)C)C1` (centres undefined) here?
**A.** ≤ 10 nM

**Q.** `CCOc1c(C(C)n2nc(C)c3c(N)ncnc32)cc(Cl)c(C#N)c1-c1cncc(C(=O)N(C)C)c1` (centres undefined) was tested. Which IC50 did it give?
**A.** ≤ 10 nM

**Q.** How did the IC50 turn out when `CCOc1c(C(C)n2nc(C)c3c(N)ncnc32)cc(Cl)c(C#N)c1C1CN(C(=O)C(C)(C)O)C1` (centres undefined) was run?
**A.** ≤ 10 nM

**Q.** How did the IC50 turn out when `COc1c(C(C)n2nc(C)c3c(N)ncnc32)cc(Cl)c(C)c1C1CNC(=O)O1` (centres undefined) was run?
**A.** ≤ 10 nM

**Q.** How did the IC50 turn out when `CCNC(=O)c1c(C)c(Cl)cc(C(C)n2nc(-c3ccc4cn[nH]c4c3)c3c(N)ncnc32)c1OCC` (centres undefined) was run?
**A.** ≤ 10 nM

**Q.** For `COc1c(C(C)n2nc(C)c3c(N)ncnc32)cc(Cl)c(C)c1C1CN(CC(C)C#N)C1` (centres undefined), which IC50 is on record?
**A.** ≤ 10 nM

**Q.** `CCOc1c(C(C)n2nc(CNC)c3c(N)ncnc32)cc(Cl)c(C)c1-c1ccc(C(=O)N(C)C)nc1` (centres undefined) was tested. Which IC50 did it give?
**A.** 50 to 200 nM

**Q.** For `CNC(=O)CCc1c(C)c(Cl)cc(C(C)n2nc(C)c3c(N)ncnc32)c1OC` (centres undefined), which IC50 is on record?
**A.** ≤ 10 nM

**Q.** How did the IC50 turn out when `COc1c(C(C)n2nc(C)c3c(N)ncnc32)cc(Cl)c(C)c1-c1ccc(C(=O)N(C)CCO)nc1` (centres undefined) was run?
**A.** ≤ 10 nM

**Q.** With `CCOc1c(C(C)n2nc(C(F)F)c3c(N)ncnc32)cc(Cl)c(F)c1C1CN(C[C@H](C)O)C1` (some centres undefined) as the compound, how does the IC50 read?
**A.** ≤ 10 nM

**Q.** For `COc1c(C(C)n2nc(C(F)F)c3c(N)ncnc32)cc(C#N)c(C)c1C1CN(CC(F)F)C1` (centres undefined), which IC50 is on record?
**A.** ≤ 10 nM

**Q.** With `COc1c(C(C)n2nc(C)c3c(N)ncnc32)cc(Cl)c(C#N)c1C1CN(S(C)(=O)=O)C1` (centres undefined) as the compound, how does the IC50 read?
**A.** ≤ 10 nM

**Q.** `CCOc1c(C(C)n2nc(C(F)F)c3c(N)ncnc32)cc(Cl)c(F)c1C1CN(C(C)C)C1` (centres undefined) was tested. Which IC50 did it give?
**A.** ≤ 10 nM

**Q.** With `CCOc1c(C(C)n2nc(C#C[C@H](C)O)c3c(N)ncnc32)cc(Cl)c(C)c1-c1ccc(C(=O)N(C)C)nc1` (some centres undefined) as the compound, how does the IC50 read?
**A.** ≤ 10 nM

**Q.** How did the IC50 turn out when `COc1c(C(C)n2nc(C)c3c(N)ncnc32)cc(Cl)c(C)c1C1CN(C(=O)C(C)(C)O)C1` (centres undefined) was run?
**A.** ≤ 10 nM

**Q.** Which IC50 does the source give for `CCS(=O)(=O)N1CC(c2c(C#N)c(Cl)cc(C(C)n3nc(C)c4c(N)ncnc43)c2OC)C1` (centres undefined) here?
**A.** ≤ 10 nM

**Q.** Which IC50 does the source give for `CCOC(=O)N1CC(c2c(C#N)c(Cl)cc(C(C)n3nc(C)c4c(N)ncnc43)c2OCC)C1` (centres undefined) here?
**A.** ≤ 10 nM

**Q.** `CCOc1c(C(C)n2nc(C)c3c(N)ncnc32)cc(Cl)c(C#N)c1C1CN(CCC(F)(F)F)C1` (centres undefined) was tested. Which IC50 did it give?
**A.** ≤ 10 nM

**Q.** `COc1c(C(C)n2ccc(=O)c3c(N)ncnc32)cc(Cl)c(C)c1-c1cncc(C#N)c1` (centres undefined) was tested. Which IC50 did it give?
**A.** ≤ 10 nM

**Q.** Which IC50 does the source give for `CCOc1c(C(C)n2nc(C(F)F)c3c(N)ncnc32)cc(Cl)c(F)c1C1CN(CCO)C1` (centres undefined) here?
**A.** ≤ 10 nM

**Q.** Which IC50 does the source give for `CCOC(=O)N1CC(c2c(C#N)c(Cl)cc(C(C)n3nc(C)c4c(N)ncnc43)c2OC)C1` (centres undefined) here?
**A.** ≤ 10 nM

From the Kinase Knowledgebase extract (Sharma et al. 2016)
